Test results published in patent US20070218475A1, “Efficient drug screening for protein targets” (priority 2005, published 2007).

Experiments:
[1] = target: Shh signaling; experiment: Shh-LIGHT2 assay for Hh pathway activation (Gli-dependent luciferase reporter); type: cell-based, mouse; conditions: Shh-LIGHT2 mouse cultured cell assay; read-out: IC50, inhibition of Shh signaling
[2] = target: T1, mouse Ptch (Mus musculus, UniProt Q61115); experiment: Fluorescence (BODIPY-cyclopamine) binding assay, Cos-1 cells expressing Ptch; conditions: flow cytometry
T1 construct: expressed in transfected cells; host or cells: Cos-1
T1 sequence (Q61115 1-1434): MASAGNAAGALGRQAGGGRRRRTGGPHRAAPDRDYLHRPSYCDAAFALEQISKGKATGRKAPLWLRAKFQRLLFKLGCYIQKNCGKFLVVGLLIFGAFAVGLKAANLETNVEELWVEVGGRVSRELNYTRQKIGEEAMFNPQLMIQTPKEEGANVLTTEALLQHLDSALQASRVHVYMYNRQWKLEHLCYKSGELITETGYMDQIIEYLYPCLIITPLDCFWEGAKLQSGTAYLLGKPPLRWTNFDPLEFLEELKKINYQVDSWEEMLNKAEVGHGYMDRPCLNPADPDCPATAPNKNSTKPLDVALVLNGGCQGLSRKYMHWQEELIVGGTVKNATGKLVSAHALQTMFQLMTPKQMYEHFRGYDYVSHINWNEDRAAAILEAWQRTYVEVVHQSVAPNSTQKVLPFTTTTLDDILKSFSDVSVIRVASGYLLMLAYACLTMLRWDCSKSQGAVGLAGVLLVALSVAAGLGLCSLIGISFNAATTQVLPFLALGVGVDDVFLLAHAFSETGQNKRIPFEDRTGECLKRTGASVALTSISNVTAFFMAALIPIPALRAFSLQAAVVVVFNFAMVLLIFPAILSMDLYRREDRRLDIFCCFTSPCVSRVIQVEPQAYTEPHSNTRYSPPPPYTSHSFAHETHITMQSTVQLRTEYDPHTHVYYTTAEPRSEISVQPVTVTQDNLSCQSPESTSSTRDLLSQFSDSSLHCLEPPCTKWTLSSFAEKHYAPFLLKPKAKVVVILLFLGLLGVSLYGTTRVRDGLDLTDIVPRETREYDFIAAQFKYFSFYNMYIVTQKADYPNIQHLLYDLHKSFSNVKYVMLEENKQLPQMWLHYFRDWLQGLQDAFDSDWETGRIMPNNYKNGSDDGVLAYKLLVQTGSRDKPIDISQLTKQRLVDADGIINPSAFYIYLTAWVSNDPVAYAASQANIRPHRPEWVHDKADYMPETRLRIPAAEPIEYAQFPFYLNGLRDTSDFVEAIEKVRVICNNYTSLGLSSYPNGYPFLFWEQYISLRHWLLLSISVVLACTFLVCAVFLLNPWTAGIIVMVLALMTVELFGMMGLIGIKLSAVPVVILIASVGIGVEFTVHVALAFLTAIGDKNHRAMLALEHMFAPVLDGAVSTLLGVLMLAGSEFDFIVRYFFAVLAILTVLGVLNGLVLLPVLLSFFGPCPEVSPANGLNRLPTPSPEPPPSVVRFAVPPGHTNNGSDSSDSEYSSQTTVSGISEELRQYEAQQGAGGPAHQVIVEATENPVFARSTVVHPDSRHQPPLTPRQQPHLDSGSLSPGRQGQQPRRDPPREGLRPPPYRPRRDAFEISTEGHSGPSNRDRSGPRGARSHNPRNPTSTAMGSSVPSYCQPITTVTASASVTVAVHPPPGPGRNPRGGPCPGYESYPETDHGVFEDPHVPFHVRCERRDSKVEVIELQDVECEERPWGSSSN
Experimental: (§1) Fluorescence binding assay: Cos-1 cells were transfected in 6-well plates with the described expression vectors (1 μg/well), and after two days, incubated in DMEM containing 10% fetal bovine serum, 5 nM BODIPY-cyclopamine, and various concentrations of the indicated competitors for 4-6 h at 37° C. For flow cytometry experiments, the cells were then trypsinized, collected by centrifugation, resuspended in phenol red-free DMEM containing 0.5% bovine calf serum, and analyzed for green fluorescence (FACScan, Beckton Dickinson). A fluorescence intensity range that excludes non-transfected cells was then selected for quantification of specific BODIPY-cyclopamine binding (see brackets in FIGS. 2C, 2D, and 3A). Curve fitting analysis was performed with Kaleidograph (Synergy Software).

[3] = target: T2, Smo (Mus musculus, UniProt P56726); experiment: Fluorescence (BODIPY-cyclopamine) binding assay, Smo-expressing Cos-1 cells; conditions: Cos-1 cells transiently transfected, fluorescence microscopy and flow cytometry
T2 construct: expressed in transfected cells; host or cells: Cos-1
T2 sequence (P56726 33-793): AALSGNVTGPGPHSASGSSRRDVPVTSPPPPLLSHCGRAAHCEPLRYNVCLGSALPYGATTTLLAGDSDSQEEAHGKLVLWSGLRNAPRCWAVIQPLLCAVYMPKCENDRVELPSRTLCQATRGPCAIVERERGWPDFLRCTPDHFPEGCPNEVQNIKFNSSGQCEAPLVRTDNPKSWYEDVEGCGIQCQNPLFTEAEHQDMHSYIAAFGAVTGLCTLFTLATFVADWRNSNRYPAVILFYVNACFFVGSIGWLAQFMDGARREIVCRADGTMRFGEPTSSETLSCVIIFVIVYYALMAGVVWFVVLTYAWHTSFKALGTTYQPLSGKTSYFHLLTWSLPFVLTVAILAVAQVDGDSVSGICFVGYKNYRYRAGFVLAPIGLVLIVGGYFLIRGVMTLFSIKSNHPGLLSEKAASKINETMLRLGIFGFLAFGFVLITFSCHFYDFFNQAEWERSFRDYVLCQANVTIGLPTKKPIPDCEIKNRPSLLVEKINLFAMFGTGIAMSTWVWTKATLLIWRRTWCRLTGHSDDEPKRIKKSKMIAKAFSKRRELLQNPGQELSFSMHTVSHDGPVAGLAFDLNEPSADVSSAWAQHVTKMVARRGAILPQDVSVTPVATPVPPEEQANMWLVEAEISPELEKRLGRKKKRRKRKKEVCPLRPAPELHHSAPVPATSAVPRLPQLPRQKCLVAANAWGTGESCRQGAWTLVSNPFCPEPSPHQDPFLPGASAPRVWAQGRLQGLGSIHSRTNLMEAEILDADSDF
Experimental: (§2) For flow cytometry experiments, the cells were then trypsinized, collected by centrifugation, resuspended in phenol red-free DMEM containing 0.5% bovine calf serum, and analyzed for green fluorescence (FACScan, Beckton Dickinson). […] Curve fitting analysis was performed with Kaleidograph (Synergy Software).

[4] = target: T3, SmoA1 (Mus musculus, UniProt P56726, W539L); experiment: Fluorescence (BODIPY-cyclopamine) binding assay, SmoA1-expressing Cos-1 cells; conditions: flow cytometry
T3 construct: expressed in transfected cells; host or cells: Cos-1
T3 sequence (P56726 33-793 W539L): as the sequence (P56726 33-793) above, with W507L counted along it
Experimental: as §1

[5] = target: T4, SmoΔCRD (Mus musculus, UniProt P56726, DEL68-182); experiment: Fluorescence (BODIPY-cyclopamine) binding assay, Cos-1 cells expressing SmoΔCRD; conditions: Cos-1 cells, flow cytometry
T4 construct: expressed in transfected cells; host or cells: Cos-1
T4 sequence (P56726 with tags, fused parts or gaps DEL68-182): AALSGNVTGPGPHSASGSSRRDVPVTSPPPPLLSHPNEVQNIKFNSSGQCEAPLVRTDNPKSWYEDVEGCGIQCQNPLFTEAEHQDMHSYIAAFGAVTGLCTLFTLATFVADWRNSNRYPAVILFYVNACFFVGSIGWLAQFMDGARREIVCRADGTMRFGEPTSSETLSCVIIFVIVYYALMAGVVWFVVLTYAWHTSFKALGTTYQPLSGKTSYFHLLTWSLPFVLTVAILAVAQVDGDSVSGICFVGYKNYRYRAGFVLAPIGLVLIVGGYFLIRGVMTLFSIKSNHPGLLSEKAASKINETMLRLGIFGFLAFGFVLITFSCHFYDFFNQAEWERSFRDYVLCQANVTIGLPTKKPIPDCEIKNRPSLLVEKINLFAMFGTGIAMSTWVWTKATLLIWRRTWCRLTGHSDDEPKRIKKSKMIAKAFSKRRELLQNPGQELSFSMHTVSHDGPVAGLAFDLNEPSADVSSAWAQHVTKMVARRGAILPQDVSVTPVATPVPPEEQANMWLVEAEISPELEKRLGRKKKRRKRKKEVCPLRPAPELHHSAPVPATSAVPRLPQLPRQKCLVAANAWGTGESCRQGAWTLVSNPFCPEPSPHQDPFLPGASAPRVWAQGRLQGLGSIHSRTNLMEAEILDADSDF
Source text: Preparation of Smo fusion proteins and deletion mutants: Both Smo-Myc3 and SmoA1-Myc3 are C-terminally fused to three consecutive Myc epitopes. […] Smo-GFP is comprised of green fluorescent protein fused to the C-terminus of Smo, and the fluorescent proteins in SmoA1-YFP, and SmoA1-GFP are similarly fused to the C-terminus of SmoA1. All constructs were generated by PCR and verified by DNA sequencing.
as §2

SMILES: CC1=C2CC3C(CC=C4C[C@@H](O)CCC43C)C2CCC12O[C@@H]1CC(C)CN(CCNC(=O)CCCCCNC(=O)CCC3=[N+]4C(=Cc5c(C)cc(C)n5[B-]4(F)F)C=C3)C1C2C (some centres unmarked) [BODIPY-cyclopamine]
- IC50 [1]: 0.15 µM
- binding to cells expressing mouse Ptch [2]: did not bind
- binding to Smo-expressing cells [3]: bound with high capacity
- binding to cells expressing SmoA1 [4]: did not bind
- binding to cells expressing SmoΔCRD [5]: can bind
